The values that follow come from patent US20220039383A1, “Use of the Succinate Dehydrogenase Inhibitor Fluopyram for Controlling Claviceps Purpurea and Reducing Sclerotia in Cereals” (Bayer Aktiengesellschaft, priority 2018, published 2022).

Experiment [1] has as its system Claviceps purpurea. The experiment is described as follows: Field test plot 2017, Canada: foliar application, assessment of sclerotia (ergot bodies) in spring wheat CTC Utmost. The format is in vivo. As to conditions: EC 150 g/l, 1.333 L/HA, 200 g/ha, applied BBCH 59-61, 96 days post application. As to the method: (§1) In Canada, in 2017, a test plot was conducted with the spring wheat variety CTC Utmost. Fluopyram as well as market standards were applied according to table 1 on July 7th between BBCH stage59 and 61 (. Assessment of sclerotia was done in fall 2017 96 days post application.

For experiment [2], the system named is spring wheat variety CTC Utmost. The experiment is described as follows: Field test plot 2017, Canada: yield of spring wheat treated against Claviceps purpurea. The conditions noted are these: EC 150 g/l, 1.333 L/HA, 200 g/ha, untreated = 100. The experiment is classed as in vivo. As to the method:
as §1

The structures appear in SMILES notation.

In the case of `O=C(NCCc1ncc(C(F)(F)F)cc1Cl)c1ccccc1C(F)(F)F` [Fluopyram, N-{[3-chloro-5-(trifluoromethyl)-2-pyridinyl]ethyl}-2-trifluoromethylbenzamide], the “Number of Ergot bodies per kg seed” value in experiment [1] worked out at 5 per kg seed. The “% yield compared to Untreated” value in experiment [2] was 109.85%.
